Conditions: 343.14 K, Liquid, Vibrating tube method

CCCC(=O)OCC(COC(=O)CCC)(COC(=O)CCC)COC(=O)CCC [pentaerythritol tetrabutyrate]
Conditions | mass density [kg/m3]
773.4 kPa | 1008.6
794.9 kPa | 1008.7
818 kPa | 1008.6
837.8 kPa | 1008.5
863.2 kPa | 1008.6
890.1 kPa | 1008.8
913.7 kPa | 1008.7
943.4 kPa | 1008.7
969.3 kPa | 1008.9
1002.1 kPa | 1008.8
1036.5 kPa | 1008.8
1072.5 kPa | 1008.9
1104.2 kPa | 1008.8
1144 kPa | 1008.9
1187.1 kPa | 1008.9
1225.3 kPa | 1009
1274.2 kPa | 1009
1324.7 kPa | 1009
1369.5 kPa | 1009.1
1428.4 kPa | 1009.2
1489.8 kPa | 1009.2
1539.7 kPa | 1009.3
1615.7 kPa | 1009.3
1656.6 kPa | 1009.4
1676.8 kPa | 1009.3
1697.6 kPa | 1009.4
1715.3 kPa | 1009.4
1736.3 kPa | 1009.5
1758.3 kPa | 1009.4
1780.4 kPa | 1009.4
1799.6 kPa | 1009.4
1823.1 kPa | 1009.5
1842.9 kPa | 1009.5
1866.6 kPa | 1009.7
1891.8 kPa | 1009.5
1912.6 kPa | 1009.6
1937.9 kPa | 1009.6
1964.7 kPa | 1009.5
1987.2 kPa | 1009.6
2014.1 kPa | 1009.7
2042.2 kPa | 1009.7
2065.8 kPa | 1009.6
2094.8 kPa | 1009.6
2125.5 kPa | 1009.8
2150.1 kPa | 1009.9
2180.8 kPa | 1009.8
2213.3 kPa | 1009.7
2247.3 kPa | 1009.8
2275.2 kPa | 1009.8
2308 kPa | 1009.8
2336.8 kPa | 1009.9
2371.5 kPa | 1009.8
2407 kPa | 1009.9
2443.3 kPa | 1009.9
2474.7 kPa | 1010
2513.3 kPa | 1010.1
2553.2 kPa | 1010
2587.6 kPa | 1010.1
2629.4 kPa | 1010
2672.7 kPa | 1009.9
2711.2 kPa | 1010.3
2794.1 kPa | 1010.3
2887.4 kPa | 1010.4
2936.4 kPa | 1010.4
2979.8 kPa | 1010.4
3032.3 kPa | 1010.4
3076.5 kPa | 1010.5
3130.6 kPa | 1010.4
3186.2 kPa | 1010.6
3242.9 kPa | 1010.6
3291.4 kPa | 1010.7
3352.4 kPa | 1010.6
3413.6 kPa | 1010.6
3465.5 kPa | 1010.7
3526.7 kPa | 1010.8
3578 kPa | 1010.8
3651.6 kPa | 1011
3705.3 kPa | 1011
3789.3 kPa | 1010.9
3822.9 kPa | 1011.1
3911.1 kPa | 1011.1
3990.2 kPa | 1011.2
4072.1 kPa | 1011.2
4144 kPa | 1011.3
4183.8 kPa | 1011.4
4214.1 kPa | 1011.4
4417.6 kPa | 1011.4
4449.7 kPa | 1011.6
4486.8 kPa | 1011.6
4507.9 kPa | 1011.5
4727.5 kPa | 1011.7
5057.9 kPa | 1012.1
5072.9 kPa | 1012.3
5076 kPa | 1012
5110.6 kPa | 1012.1
5117 kPa | 1012.1
5126.9 kPa | 1012.1
5150.9 kPa | 1012.2
5159.4 kPa | 1012.3
5175.5 kPa | 1012.1
5176 kPa | 1012.2
5178.4 kPa | 1012.2
5180.5 kPa | 1012.1
5180.7 kPa | 1012
5182.4 kPa | 1012.2
5183.8 kPa | 1012.3
5184.3 kPa | 1012.1
5185 kPa | 1012.1
5185.2 kPa | 1012.1
5185.5 kPa | 1012.2
5186.2 kPa | 1012.2
5187.3 kPa | 1012.1
5188.5 kPa | 1012.1
5189 kPa | 1012.2
5189.9 kPa | 1012.3
5190.4 kPa | 1012.1
5205.3 kPa | 1012.2
5219.3 kPa | 1012.2
5228.9 kPa | 1012.3
5236 kPa | 1012.2
5238.3 kPa | 1012.3
5248 kPa | 1012.2
5250.1 kPa | 1012.2
5252.5 kPa | 1012.2
5253.9 kPa | 1012.3
5256.1 kPa | 1012.2
5266.1 kPa | 1012.1
5282.2 kPa | 1012.2
5294.5 kPa | 1012.3
5310.3 kPa | 1012.2
5338.3 kPa | 1012.2
5338.4 kPa | 1012.1
5368.9 kPa | 1012.1
5399.8 kPa | 1012.4
5401.2 kPa | 1012.4
5439.1 kPa | 1012.3
5471.1 kPa | 1012.4
5509.5 kPa | 1012.4
5540.4 kPa | 1012.4
5575.9 kPa | 1012.5
5603.9 kPa | 1012.4
5635.2 kPa | 1012.6
5666.5 kPa | 1012.5
5693.6 kPa | 1012.5
5727 kPa | 1012.6
5754.8 kPa | 1012.6
5789.8 kPa | 1012.7
5820.2 kPa | 1012.7
5848.2 kPa | 1012.7
5882.8 kPa | 1012.5
5917.3 kPa | 1012.8
5983 kPa | 1012.8
6117.5 kPa | 1013
6146.4 kPa | 1012.8
6179.9 kPa | 1012.9
6208.2 kPa | 1012.9
6243.3 kPa | 1013
6271.8 kPa | 1012.9
6306.4 kPa | 1012.9
6341.3 kPa | 1013
6370.3 kPa | 1013.1
6406.6 kPa | 1013
6437.2 kPa | 1013.1
6473.6 kPa | 1013.1
6511 kPa | 1013.2
6542.8 kPa | 1013.3
6581.3 kPa | 1013.2
6611.2 kPa | 1013.2
6645.7 kPa | 1013.4
6673.9 kPa | 1013.3
6707.9 kPa | 1013.3
6736.2 kPa | 1013.4
6771.5 kPa | 1013.3
6800.7 kPa | 1013.3
6836.3 kPa | 1013.4
6866 kPa | 1013.4
6902.9 kPa | 1013.4
6934 kPa | 1013.6
6971 kPa | 1013.5
7008.4 kPa | 1013.5
7168 kPa | 1013.6
7200.4 kPa | 1013.7
7227.9 kPa | 1013.7
7261.2 kPa | 1013.7
7289.3 kPa | 1013.8
7323.9 kPa | 1013.9
7352.7 kPa | 1013.8
7387.4 kPa | 1014
7416.1 kPa | 1013.9
7450.6 kPa | 1013.8
7480.1 kPa | 1014
7515.7 kPa | 1014
7551.4 kPa | 1013.9
7581.6 kPa | 1013.9
7618.5 kPa | 1014
7649.6 kPa | 1014
7686.9 kPa | 1014
7718.3 kPa | 1014.2
7756.1 kPa | 1014.1
7788.3 kPa | 1014.2
7827 kPa | 1014.2
7866.3 kPa | 1014.2
7899.3 kPa | 1014.2
7932.8 kPa | 1014.4
7972.8 kPa | 1014.4
8013.9 kPa | 1014.3
8090.3 kPa | 1014.4
8125.6 kPa | 1014.5
8169.1 kPa | 1014.4
8205.4 kPa | 1014.5
8246 kPa | 1014.4
8283.5 kPa | 1014.5
8312 kPa | 1014.5
8346.8 kPa | 1014.6
8382.7 kPa | 1014.7
8723.4 kPa | 1014.9
8760.5 kPa | 1014.7
8798.7 kPa | 1014.8
8838.7 kPa | 1014.9
8871 kPa | 1015
8910.3 kPa | 1015.2
8943.4 kPa | 1015
9220.4 kPa | 1015.3
9262.8 kPa | 1015.3
9305.7 kPa | 1015.3
9342.7 kPa | 1015.3
9387.2 kPa | 1015.4
9430.1 kPa | 1015.4
9462.8 kPa | 1015.5
9499 kPa | 1015.3
9535.2 kPa | 1015.5
9572.1 kPa | 1015.6
9751.4 kPa | 1015.7
9783.6 kPa | 1015.7
10212 kPa | 1016
10254 kPa | 1016.1
10297 kPa | 1016.1
10334 kPa | 1015.9
10376 kPa | 1016
10420 kPa | 1016.1
10456 kPa | 1016.3
10500 kPa | 1016.3
10816 kPa | 1016.5
10866 kPa | 1016.5
10904 kPa | 1016.5
11274 kPa | 1016.8
11884 kPa | 1017.2
11921 kPa | 1017.2
11965 kPa | 1017.2
12003 kPa | 1017.3
12047 kPa | 1017.3
12093 kPa | 1017.5
12139 kPa | 1017.3
12178 kPa | 1017.4
12224 kPa | 1017.5
12271 kPa | 1017.5
12318 kPa | 1017.5
14882 kPa | 1019.5
14925 kPa | 1019.6
14968 kPa | 1019.5
15004 kPa | 1019.4
15048 kPa | 1019.5
15500 kPa | 1019.8
15576 kPa | 1019.8
17833 kPa | 1021.6
19181 kPa | 1022.6
19261 kPa | 1022.5
22923 kPa | 1025
23811 kPa | 1025.7
23859 kPa | 1025.7
23900 kPa | 1025.7
23948 kPa | 1025.8
23996 kPa | 1025.8
24046 kPa | 1025.8
25712 kPa | 1027
25761 kPa | 1026.9
25802 kPa | 1027
25851 kPa | 1027.1
25900 kPa | 1027.1
25940 kPa | 1027.1
25989 kPa | 1027.1
26037 kPa | 1027.1
26087 kPa | 1027.3
26128 kPa | 1027.2
26178 kPa | 1027.4
26627 kPa | 1027.5
26673 kPa | 1027.6
26708 kPa | 1027.6
26751 kPa | 1027.6
26793 kPa | 1027.7
26835 kPa | 1027.8
26872 kPa | 1027.7
26914 kPa | 1027.8

— the NIST ThermoML archive (doi:10.1021/je060271a)
